According to US20230183678A1, “IN-CELL CONTINUOUS TARGET-GENE EVOLUTION, SCREENING AND SELECTION” (COMMISSARIAT À L'ENERGIE ATOMIQUE ET AUX ENERGIES …, priority 2020, published 2023):

B1: cI-PDZ (DBD-target fusion) (other)
chain: MSTKKKPLTQEQLEDARRLKAIYEKKKNELGLSQESVADKMGMGQSGVGALFNGINALNAYNAALLAKILKVSVEEFSPSIAREIYEMYEAVSMQPSLRSEYEYPVFSHVQAGMFSPELRTFTKGDAERWVSTTKKASDSAFWLEVEGNSMTAPTGSKPSFPDGMLILVDPEQAVEPGDFCIARLGGDEFTFKKLIRDSGQVFLQPLNPQYPMIPCNESCSVVGKVIASQWPEETFGAAALGEEDIPREPRRIVIHRGSTGLGFNIVGGEDGEGIFISFILAGGPADLSGELRKGDQILSVNGVDLRNASHEQAAIALKNAGQTVTIIAQYKPEEYSRFEAK
notes: Expressed in E. coli BL21(DE3) Star or Acella cells from plasmid VN419

Key:
PDZ = biological target: T1, PDZ (Homo sapiens, UniProt P78352); conditions: cI-PDZ/rpoA-CRIPT pair; read-out: affinity; cited from earlier work
T1 construct: expressed in transfected cells; host or cells: E. coli BL21(DE3) Star or Acella, plasmid VN419

[1] = biological target: T2, rpoA-stop (premature stop codon resulting in no fusion peptide) (UniProt P0A7Z4 1-248, limits assumed); assay: bacterial two-hybrid coupled to Bxb1 DNA invertase; sequencing of colonies showed no inversion
T2 construct: also called VN376
T2 sequence (P0A7Z4 1-248 limits assumed): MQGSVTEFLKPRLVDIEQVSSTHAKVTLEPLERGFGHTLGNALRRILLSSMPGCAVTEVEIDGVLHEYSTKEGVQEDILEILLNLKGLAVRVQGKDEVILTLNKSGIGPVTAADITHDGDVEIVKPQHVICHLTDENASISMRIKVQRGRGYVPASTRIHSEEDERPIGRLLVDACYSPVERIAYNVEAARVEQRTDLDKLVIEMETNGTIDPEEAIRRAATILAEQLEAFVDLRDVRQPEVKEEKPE

Molecule	Kd (PDZ)	binding result [1]
CRIPT [rpoA-CRIPT]	0.8 µM	
B1		no binding
